Measured values from ChEMBL document CHEMBL5724914, “Linking interpersonal differences in gut microbiota composition and drug biotransformation activity” (2024).
Where a SMILES comes first, the peptide text is derived from it. [ ]: non-standard residue; d: D form. pGlu = O=C1CC[C@@H](C(=O)O)N1; Thz = O=C(O)[C@@H]1CSCN1

Assay: (§1) The drug is tested on Z-029 corresponding to rat gut metagenome with ENA study accession number: PRJEB37062 and ENA sample accession number: ERS12561828 for biotransformation under anaerobic condition. The drug concentrations were measured over 9 timepoints collected between 0 and 24 hours of incubation by liquid-chromatography-coupled mass spectrometry (LC–MS)
Details: 2 µM
Note: call rule not given here.

Row | Structure (SMILES) | Bacterial Biotransformation
1 | O=C1CC[C@@H](C(=O)N2CSC[C@H]2C(=O)O)N1 [PIDOTIMOD] ([pGlu]-[Thz]-OH) | Compound NOT metabolized
2 | c1ccc([C@H]2CN3CCSC3=N2)cc1 [LEVAMISOLE] | Compound NOT metabolized
3 | O=c1[nH]c2ccccc2n1CCCN1CCC(n2c(=O)[nH]c3cc(Cl)ccc32)CC1 [DOMPERIDONE] | Compound NOT metabolized
4 | C#C[C@]1(O)CC[C@H]2[C@@H]3CCC4=CC(=O)CC[C@@H]4[C@H]3CC[C@@]21CC [LEVONORGESTREL] | Compound NOT metabolized

Assay: as §1, with “on WLS-240” for “on Z-029”, “to human” for “to rat”, “number: ERS12561773” for “number: ERS12561828”
Details: 2 µM

Row | Structure (SMILES) | Bacterial Biotransformation
5 | O=C1CC[C@@H](C(=O)N2CSC[C@H]2C(=O)O)N1 [PIDOTIMOD] ([pGlu]-[Thz]-OH) | Compound NOT metabolized
6 | c1ccc([C@H]2CN3CCSC3=N2)cc1 [LEVAMISOLE] | Compound metabolized
7 | O=c1[nH]c2ccccc2n1CCCN1CCC(n2c(=O)[nH]c3cc(Cl)ccc32)CC1 [DOMPERIDONE] | Compound NOT metabolized

Assay: as §1, with “Z-012” for “Z-029”, “to” for “to rat gut”, “ERS12561812” for “ERS12561828”
Details: 2 µM

Row | Structure (SMILES) | Bacterial Biotransformation
8 | O=C1CC[C@@H](C(=O)N2CSC[C@H]2C(=O)O)N1 [PIDOTIMOD] ([pGlu]-[Thz]-OH) | Compound NOT metabolized
9 | c1ccc([C@H]2CN3CCSC3=N2)cc1 [LEVAMISOLE] | Compound NOT metabolized
10 | O=c1[nH]c2ccccc2n1CCCN1CCC(n2c(=O)[nH]c3cc(Cl)ccc32)CC1 [DOMPERIDONE] | Compound NOT metabolized

Assay: as §1, with “on Z-003” for “on Z-029”, “to pig” for “to rat”, “number: ERS12561803” for “number: ERS12561828”
Details: 2 µM

Row | Structure (SMILES) | Bacterial Biotransformation
11 | O=C1CC[C@@H](C(=O)N2CSC[C@H]2C(=O)O)N1 [PIDOTIMOD] ([pGlu]-[Thz]-OH) | Compound NOT metabolized
12 | O=c1[nH]c2ccccc2n1CCCN1CCC(n2c(=O)[nH]c3cc(Cl)ccc32)CC1 [DOMPERIDONE] | Compound NOT metabolized

Assay: as §1, with “Z-005” for “Z-029”, “to” for “to rat gut”, “ERS12561805” for “ERS12561828”
Details: 2 µM

Row | Structure (SMILES) | Bacterial Biotransformation
13 | O=C1CC[C@@H](C(=O)N2CSC[C@H]2C(=O)O)N1 [PIDOTIMOD] ([pGlu]-[Thz]-OH) | Compound metabolized
14 | O=c1[nH]c2ccccc2n1CCCN1CCC(n2c(=O)[nH]c3cc(Cl)ccc32)CC1 [DOMPERIDONE] | Compound NOT metabolized

Details: human gut metagenome, 24 h, 2 µM

Row | Structure (SMILES) | Bacterial Biotransformation
15 | c1ccc([C@H]2CN3CCSC3=N2)cc1 [LEVAMISOLE] | Compound metabolized
16 | O=c1[nH]c2ccccc2n1CCCN1CCC(n2c(=O)[nH]c3cc(Cl)ccc32)CC1 [DOMPERIDONE] | Compound NOT metabolized
17 | C#C[C@]1(O)CC[C@H]2[C@@H]3CCC4=CC(=O)CC[C@@H]4[C@H]3CC[C@@]21CC [LEVONORGESTREL] | Compound metabolized

Assay: as §1, with “on WLS-350” for “on Z-029”, “to human” for “to rat”, “number: ERS12561789” for “number: ERS12561828”
Details: 2 µM

Row | Structure (SMILES) | Bacterial Biotransformation
18 | O=C1CC[C@@H](C(=O)N2CSC[C@H]2C(=O)O)N1 [PIDOTIMOD] ([pGlu]-[Thz]-OH) | Compound NOT metabolized
19 | c1ccc([C@H]2CN3CCSC3=N2)cc1 [LEVAMISOLE] | Compound metabolized
20 | O=c1[nH]c2ccccc2n1CCCN1CCC(n2c(=O)[nH]c3cc(Cl)ccc32)CC1 [DOMPERIDONE] | Compound NOT metabolized
21 | C#C[C@]1(O)CC[C@H]2[C@@H]3CCC4=CC(=O)CC[C@@H]4[C@H]3CC[C@@]21CC [LEVONORGESTREL] | Compound metabolized

Details: human gut metagenome, 24 h, 2 µM
Remark: another data set of the same source

Row | Structure (SMILES) | Bacterial Biotransformation
22 | O=C1CC[C@@H](C(=O)N2CSC[C@H]2C(=O)O)N1 [PIDOTIMOD] ([pGlu]-[Thz]-OH) | Compound NOT metabolized
23 | c1ccc([C@H]2CN3CCSC3=N2)cc1 [LEVAMISOLE] | Compound metabolized
24 | C#C[C@]1(O)CC[C@H]2[C@@H]3CCC4=CC(=O)CC[C@@H]4[C@H]3CC[C@@]21CC [LEVONORGESTREL] | Compound metabolized

Assay: as §1, with “Z-007” for “Z-029”, “ERS12561807” for “ERS12561828”
Details: 2 µM

Row | Structure (SMILES) | Bacterial Biotransformation
25 | O=C1CC[C@@H](C(=O)N2CSC[C@H]2C(=O)O)N1 [PIDOTIMOD] ([pGlu]-[Thz]-OH) | Compound NOT metabolized
26 | c1ccc([C@H]2CN3CCSC3=N2)cc1 [LEVAMISOLE] | Compound NOT metabolized
27 | O=c1[nH]c2ccccc2n1CCCN1CCC(n2c(=O)[nH]c3cc(Cl)ccc32)CC1 [DOMPERIDONE] | Compound NOT metabolized
28 | C#C[C@]1(O)CC[C@H]2[C@@H]3CCC4=CC(=O)CC[C@@H]4[C@H]3CC[C@@]21CC [LEVONORGESTREL] | Compound metabolized

Details: human gut metagenome, 24 h, 2 µM
Remark: another data set of the same source

Row | Structure (SMILES) | Bacterial Biotransformation
29 | O=C1CC[C@@H](C(=O)N2CSC[C@H]2C(=O)O)N1 [PIDOTIMOD] ([pGlu]-[Thz]-OH) | Compound NOT metabolized
30 | c1ccc([C@H]2CN3CCSC3=N2)cc1 [LEVAMISOLE] | Compound metabolized
31 | O=c1[nH]c2ccccc2n1CCCN1CCC(n2c(=O)[nH]c3cc(Cl)ccc32)CC1 [DOMPERIDONE] | Compound NOT metabolized
32 | C#C[C@]1(O)CC[C@H]2[C@@H]3CCC4=CC(=O)CC[C@@H]4[C@H]3CC[C@@]21CC [LEVONORGESTREL] | Compound metabolized

Details: human gut metagenome, 24 h, 2 µM
Remark: another data set of the same source

Row | Structure (SMILES) | Bacterial Biotransformation
33 | c1ccc([C@H]2CN3CCSC3=N2)cc1 [LEVAMISOLE] | Compound metabolized
34 | O=c1[nH]c2ccccc2n1CCCN1CCC(n2c(=O)[nH]c3cc(Cl)ccc32)CC1 [DOMPERIDONE] | Compound NOT metabolized
35 | C#C[C@]1(O)CC[C@H]2[C@@H]3CCC4=CC(=O)CC[C@@H]4[C@H]3CC[C@@]21CC [LEVONORGESTREL] | Compound metabolized

Details: human gut metagenome, 24 h, 2 µM
Remark: another data set of the same source

Row | Structure (SMILES) | Bacterial Biotransformation
36 | c1ccc([C@H]2CN3CCSC3=N2)cc1 [LEVAMISOLE] | Compound metabolized
37 | O=c1[nH]c2ccccc2n1CCCN1CCC(n2c(=O)[nH]c3cc(Cl)ccc32)CC1 [DOMPERIDONE] | Compound NOT metabolized
38 | C#C[C@]1(O)CC[C@H]2[C@@H]3CCC4=CC(=O)CC[C@@H]4[C@H]3CC[C@@]21CC [LEVONORGESTREL] | Compound metabolized

Details: human gut metagenome, 24 h, 2 µM
Remark: another data set of the same source

Row | Structure (SMILES) | Bacterial Biotransformation
39 | c1ccc([C@H]2CN3CCSC3=N2)cc1 [LEVAMISOLE] | Compound metabolized
40 | C#C[C@]1(O)CC[C@H]2[C@@H]3CCC4=CC(=O)CC[C@@H]4[C@H]3CC[C@@]21CC [LEVONORGESTREL] | Compound metabolized

Details: human gut metagenome, 24 h, 2 µM
Remark: another data set of the same source

Row | Structure (SMILES) | Bacterial Biotransformation
41 | O=C1CC[C@@H](C(=O)N2CSC[C@H]2C(=O)O)N1 [PIDOTIMOD] ([pGlu]-[Thz]-OH) | Compound metabolized
42 | c1ccc([C@H]2CN3CCSC3=N2)cc1 [LEVAMISOLE] | Compound metabolized
43 | O=c1[nH]c2ccccc2n1CCCN1CCC(n2c(=O)[nH]c3cc(Cl)ccc32)CC1 [DOMPERIDONE] | Compound NOT metabolized
44 | C#C[C@]1(O)CC[C@H]2[C@@H]3CCC4=CC(=O)CC[C@@H]4[C@H]3CC[C@@]21CC [LEVONORGESTREL] | Compound metabolized

Assay: as §1, with “on Z-018” for “on Z-029”, “to pig” for “to rat”, “number: ERS12561817” for “number: ERS12561828”
Details: 2 µM

Row | Structure (SMILES) | Bacterial Biotransformation
45 | O=C1CC[C@@H](C(=O)N2CSC[C@H]2C(=O)O)N1 [PIDOTIMOD] ([pGlu]-[Thz]-OH) | Compound metabolized
46 | c1ccc([C@H]2CN3CCSC3=N2)cc1 [LEVAMISOLE] | Compound metabolized
47 | O=c1[nH]c2ccccc2n1CCCN1CCC(n2c(=O)[nH]c3cc(Cl)ccc32)CC1 [DOMPERIDONE] | Compound NOT metabolized
48 | C#C[C@]1(O)CC[C@H]2[C@@H]3CCC4=CC(=O)CC[C@@H]4[C@H]3CC[C@@]21CC [LEVONORGESTREL] | Compound metabolized

Details: human gut metagenome, 24 h, 2 µM
Remark: another data set of the same source

Row | Structure (SMILES) | Bacterial Biotransformation
49 | O=C1CC[C@@H](C(=O)N2CSC[C@H]2C(=O)O)N1 [PIDOTIMOD] ([pGlu]-[Thz]-OH) | Compound NOT metabolized
50 | c1ccc([C@H]2CN3CCSC3=N2)cc1 [LEVAMISOLE] | Compound metabolized
51 | O=c1[nH]c2ccccc2n1CCCN1CCC(n2c(=O)[nH]c3cc(Cl)ccc32)CC1 [DOMPERIDONE] | Compound NOT metabolized

Details: human gut metagenome, 24 h, 2 µM
Remark: another data set of the same source

Row | Structure (SMILES) | Bacterial Biotransformation
52 | c1ccc([C@H]2CN3CCSC3=N2)cc1 [LEVAMISOLE] | Compound metabolized
53 | O=c1[nH]c2ccccc2n1CCCN1CCC(n2c(=O)[nH]c3cc(Cl)ccc32)CC1 [DOMPERIDONE] | Compound NOT metabolized
54 | C#C[C@]1(O)CC[C@H]2[C@@H]3CCC4=CC(=O)CC[C@@H]4[C@H]3CC[C@@]21CC [LEVONORGESTREL] | Compound metabolized

Assay: as §1, with “on WLS-082” for “on Z-029”, “to human” for “to rat”, “number: ERS12561751” for “number: ERS12561828”
Details: 2 µM

Row | Structure (SMILES) | Bacterial Biotransformation
55 | O=C1CC[C@@H](C(=O)N2CSC[C@H]2C(=O)O)N1 [PIDOTIMOD] ([pGlu]-[Thz]-OH) | Compound NOT metabolized
56 | O=c1[nH]c2ccccc2n1CCCN1CCC(n2c(=O)[nH]c3cc(Cl)ccc32)CC1 [DOMPERIDONE] | Compound NOT metabolized
57 | C#C[C@]1(O)CC[C@H]2[C@@H]3CCC4=CC(=O)CC[C@@H]4[C@H]3CC[C@@]21CC [LEVONORGESTREL] | Compound metabolized

Details: human gut metagenome, 24 h, 2 µM
Remark: another data set of the same source

Row | Structure (SMILES) | Bacterial Biotransformation
58 | O=C1CC[C@@H](C(=O)N2CSC[C@H]2C(=O)O)N1 [PIDOTIMOD] ([pGlu]-[Thz]-OH) | Compound NOT metabolized
59 | c1ccc([C@H]2CN3CCSC3=N2)cc1 [LEVAMISOLE] | Compound metabolized
60 | C#C[C@]1(O)CC[C@H]2[C@@H]3CCC4=CC(=O)CC[C@@H]4[C@H]3CC[C@@]21CC [LEVONORGESTREL] | Compound NOT metabolized

Details: human gut metagenome, 24 h, 2 µM
Remark: another data set of the same source

Row | Structure (SMILES) | Bacterial Biotransformation
61 | O=C1CC[C@@H](C(=O)N2CSC[C@H]2C(=O)O)N1 [PIDOTIMOD] ([pGlu]-[Thz]-OH) | Compound NOT metabolized
62 | c1ccc([C@H]2CN3CCSC3=N2)cc1 [LEVAMISOLE] | Compound metabolized
63 | O=c1[nH]c2ccccc2n1CCCN1CCC(n2c(=O)[nH]c3cc(Cl)ccc32)CC1 [DOMPERIDONE] | Compound NOT metabolized
64 | C#C[C@]1(O)CC[C@H]2[C@@H]3CCC4=CC(=O)CC[C@@H]4[C@H]3CC[C@@]21CC [LEVONORGESTREL] | Compound metabolized
